Laboratory results taken from ChEMBL document CHEMBL1201862, “PubChem BioAssay data set” (2004).
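How tested: cells in 96-well plates exposed to compound for 48 hours at five concentrations. GI50 marks 50% less growth.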 Activity calls are given as the source filed them. Rule as the data show it: active = GI50 up to about 1.1 µM and inactive = higher.

How the values were obtained:
Assay in all cases: inhibition of tumour cell growth, NCI panel, 48 h
786-0 = test system: 786-0
A498 = test system: A498
A549 = test system: A549
ACHN = test system: ACHN
CAKI-1 = test system: CAKI-1
CCRF-CEM = test system: CCRF-CEM
COLO 205 = test system: COLO 205
DLD-1 = test system: DLD-1
DMS-114 = test system: DMS-114
DMS-273 = test system: DMS-273
EKVX = test system: EKVX
HCC 2998 = test system: HCC 2998
HCT-116 = test system: HCT-116
HCT-15 = test system: HCT-15
HL-60 = test system: HL-60
HOP-18 = test system: HOP-18
HOP-92 = test system: HOP-92
HT-29 = test system: HT-29
IGROV-1 = test system: IGROV-1
K562 = test system: K562
KM-20L2 = test system: KM-20L2
KM12 = test system: KM12
LOX IMVI = test system: LOX IMVI
LXFL 529 = test system: LXFL 529
M14 = test system: M14
M19-MEL = test system: M19-MEL
MOLT-4 = test system: MOLT-4
Malme-3M = test system: Malme-3M
NCI-H226 = test system: NCI-H226
NCI-H23 = test system: NCI-H23
NCI-H522 = test system: NCI-H522
OVCAR-3 = test system: OVCAR-3
OVCAR-4 = test system: OVCAR-4
OVCAR-5 = test system: OVCAR-5
OVCAR-8 = test system: OVCAR-8
RPMI-8226 = test system: RPMI-8226
RXF 393 = test system: RXF 393
RXF 631 = test system: RXF 631
SF-268 = test system: SF-268
SF-295 = test system: SF-295
SF-539 = test system: SF-539
SK-MEL-28 = test system: SK-MEL-28
SK-MEL-2 = test system: SK-MEL-2
SK-MEL-5 = test system: SK-MEL-5
SK-OV-3 = test system: SK-OV-3
SNB-19 = test system: SNB-19
SNB-75 = test system: SNB-75
SNB-78 = test system: SNB-78
SW-620 = test system: SW-620
TK-10 = test system: TK-10
U-251 = test system: U-251
UACC-257 = test system: UACC-257
UACC-62 = test system: UACC-62
UO-31 = test system: UO-31
XF498 = test system: XF498
HOP-62 = test system: HOP-62
NCI-H460 = test system: NCI-H460
SN12C = test system: SN12C

COc1cc(O)c2c(c1)C(=O)C=C(Cl)C2=O
GI50 (786-0): > 100 µM (inactive)
GI50 (A498): > 100 µM (inactive)
GI50 (A549): > 100 µM (inactive)
GI50 (ACHN): 94.6 µM (inactive)
GI50 (CAKI-1): > 100 µM (inactive)
GI50 (CCRF-CEM): > 100 µM (inactive)
GI50 (COLO 205): > 100 µM (inactive)
GI50 (DLD-1): 30.3 µM (inactive)
GI50 (DMS-114): > 100 µM (inactive)
GI50 (DMS-273): > 100 µM (inactive)
GI50 (EKVX): > 100 µM (inactive)
GI50 (HCC 2998): 83.6 µM (inactive)
GI50 (HCT-116): 66.4 µM (inactive)
GI50 (HCT-15): > 100 µM
GI50 (HL-60): > 100 µM (inactive)
GI50 (HOP-18): > 100 µM (inactive)
GI50 (HOP-92): > 100 µM (inactive)
GI50 (HT-29): > 100 µM (inactive)
GI50 (IGROV-1): > 100 µM (inactive)
GI50 (K562): > 100 µM (inactive)
GI50 (KM-20L2): > 100 µM (inactive)
GI50 (KM12): > 100 µM (inactive)
GI50 (LOX IMVI): > 100 µM (inactive)
GI50 (LXFL 529): > 100 µM (inactive)
GI50 (M14): > 100 µM (inactive)
GI50 (M19-MEL): > 100 µM (inactive)
GI50 (MOLT-4): > 100 µM (inactive)
GI50 (Malme-3M): > 100 µM (inactive)
GI50 (NCI-H226): 28.2 µM (inactive)
GI50 (NCI-H23): > 100 µM (inactive)
GI50 (NCI-H522): > 100 µM (inactive)
GI50 (OVCAR-3): > 100 µM (inactive)
GI50 (OVCAR-4): > 100 µM (inactive)
GI50 (OVCAR-5): > 100 µM (inactive)
GI50 (OVCAR-8): 64.7 µM (inactive)
GI50 (RPMI-8226): > 100 µM (inactive)
GI50 (RXF 393): > 100 µM (inactive)
GI50 (RXF 631): 51.4 µM (inactive)
GI50 (SF-268): > 100 µM (inactive)
GI50 (SF-295): > 100 µM (inactive)
GI50 (SF-539): 68.4 µM (inactive)
GI50 (SK-MEL-28): > 100 µM (inactive)
GI50 (SK-MEL-2): > 100 µM (inactive)
GI50 (SK-MEL-5): 87.1 µM (inactive)
GI50 (SK-OV-3): > 100 µM (inactive)
GI50 (SNB-19): > 100 µM (inactive)
GI50 (SNB-75): > 100 µM (inactive)
GI50 (SNB-78): > 100 µM (inactive)
GI50 (SW-620): > 100 µM (inactive)
GI50 (TK-10): > 100 µM (inactive)
GI50 (U-251): > 100 µM (inactive)
GI50 (UACC-257): > 100 µM (inactive)
GI50 (UACC-62): > 100 µM (inactive)
GI50 (UO-31): 16 µM (inactive)
GI50 (XF498): 42.2 µM (inactive)

COc1ccc(C(=O)C(C(=O)CCC(=O)Nc2ccc(Cl)c(Cl)c2)c2ccc(OC)cc2)cc1 (stereo unspecified)
GI50 (786-0): > 100 µM (inactive)
GI50 (A498): > 100 µM (inactive)
GI50 (A549): > 100 µM (inactive)
GI50 (ACHN): > 100 µM (inactive)
GI50 (CAKI-1): > 100 µM (inactive)
GI50 (CCRF-CEM): > 100 µM (inactive)
GI50 (DLD-1): > 100 µM (inactive)
GI50 (DMS-114): > 100 µM (inactive)
GI50 (DMS-273): > 100 µM (inactive)
GI50 (EKVX): > 100 µM (inactive)
GI50 (HCC 2998): > 100 µM (inactive)
GI50 (HCT-116): > 100 µM (inactive)
GI50 (HCT-15): > 100 µM
GI50 (HL-60): 97.1 µM (inactive)
GI50 (HOP-18): > 100 µM (inactive)
GI50 (HOP-62): > 100 µM (inactive)
GI50 (HOP-92): > 100 µM (inactive)
GI50 (HT-29): > 100 µM (inactive)
GI50 (IGROV-1): > 100 µM (inactive)
GI50 (K562): > 100 µM (inactive)
GI50 (KM-20L2): > 100 µM (inactive)
GI50 (KM12): > 100 µM (inactive)
GI50 (LOX IMVI): > 100 µM (inactive)
GI50 (LXFL 529): > 100 µM (inactive)
GI50 (M14): > 100 µM (inactive)
GI50 (M19-MEL): > 100 µM (inactive)
GI50 (MOLT-4): > 100 µM (inactive)
GI50 (Malme-3M): > 100 µM (inactive)
GI50 (NCI-H226): > 100 µM (inactive)
GI50 (NCI-H23): > 100 µM (inactive)
GI50 (NCI-H460): > 100 µM (inactive)
GI50 (NCI-H522): > 100 µM (inactive)
GI50 (OVCAR-3): > 100 µM (inactive)
GI50 (OVCAR-4): > 100 µM (inactive)
GI50 (OVCAR-5): > 100 µM (inactive)
GI50 (OVCAR-8): > 100 µM (inactive)
GI50 (RPMI-8226): > 100 µM (inactive)
GI50 (RXF 393): > 100 µM (inactive)
GI50 (RXF 631): > 100 µM (inactive)
GI50 (SF-268): > 100 µM (inactive)
GI50 (SF-295): > 100 µM (inactive)
GI50 (SF-539): > 100 µM (inactive)
GI50 (SK-MEL-28): > 100 µM (inactive)
GI50 (SK-MEL-2): > 100 µM (inactive)
GI50 (SK-MEL-5): > 100 µM (inactive)
GI50 (SN12C): > 100 µM (inactive)
GI50 (SNB-19): > 100 µM (inactive)
GI50 (SNB-75): 44.9 µM (inactive)
GI50 (SNB-78): > 100 µM (inactive)
GI50 (SW-620): > 100 µM (inactive)
GI50 (TK-10): > 100 µM (inactive)
GI50 (U-251): > 100 µM (inactive)
GI50 (UACC-257): > 100 µM (inactive)
GI50 (UACC-62): > 100 µM (inactive)
GI50 (UO-31): > 100 µM (inactive)
GI50 (XF498): > 100 µM (inactive)
